For the assay, the target named is T1, CIII2 (respiratory complex III dimer, cytochrome bc1 complex) (Yarrowia lipolytica, UniProt Q9B6D0).
T1 construct: gene COB; native homodimeric complex from DDM-solubilized mitochondrial membranes after depletion of His-tagged complex I; untagged; ion exchange and size exclusion; with Cytochrome c1, heme protein, mitochondrial; Cytochrome b-c1 complex subunit 1, mitochondrial; Cytochrome b-c1 complex subunit 2, mitochondrial; Cytochrome b-c1 complex subunit 6; Cytochrome b-c1 complex subunit 7; Cytochrome b-c1 complex subunit 8; Cytochrome b-c1 complex subunit 9; Cytochrome b-c1 complex subunit 10
T1 sequence (Q9B6D0 1-385): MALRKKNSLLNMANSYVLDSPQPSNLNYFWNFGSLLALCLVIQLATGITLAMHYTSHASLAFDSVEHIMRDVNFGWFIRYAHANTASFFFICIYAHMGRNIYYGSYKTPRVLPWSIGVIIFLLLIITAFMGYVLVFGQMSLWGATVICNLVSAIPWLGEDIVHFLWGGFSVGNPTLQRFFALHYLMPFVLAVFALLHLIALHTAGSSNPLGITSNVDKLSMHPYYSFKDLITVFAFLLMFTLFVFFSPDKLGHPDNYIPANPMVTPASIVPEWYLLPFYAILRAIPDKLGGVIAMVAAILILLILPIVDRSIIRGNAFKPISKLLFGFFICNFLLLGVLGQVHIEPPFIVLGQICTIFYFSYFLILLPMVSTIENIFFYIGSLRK
The experiment in a line: cryo-EM structure. The following applies: pH 8.0. Format: binding.

Molecules are shown by their SMILES.

Turning to `O=C1C(O)=C([C@H]2CC[C@H](c3ccc(Cl)cc3)CC2)C(=O)c2ccccc21` [atovaquone], the cryo-EM structure entry (Qo site (cyt b; hydrogen bond to His190 of Rip1), with antimycin A, 120 µM) was “Atovaquone was resolved in the Qo site in the +atovaquone+antimycin A sample”. Consider `CCCCCCCCCCc1c(C)c(O)c(OC)c(OC)c1O` [decylubiquinol], for which, under “Qi site (cyt b only), 1 mM, substrate analogue”, the cryo-EM structure entry is “After its addition, decylubiquinol was resolved in the Qi site”. As to `CCCCCCCCCCC1=C(C)C(=O)C(OC)=C(OC)C1=O` [decylubiquinone], the cryo-EM structure entry (Qo site, possible low occupancy, 330 µM with 25 mM sodium ascorbate, quinone analogue) is given as “density in the Qo site increased, indicating a possible low occupancy of DQ”.

These data come from publication PMC9812224, “Analysis of the conformational heterogeneity of the Rieske iron–sulfur protein in complex III2 by cryo-EM” (IUCrJ, 2023).
